From patent US20260072027A1, “Peptides And Method” (Queen Mary University of London, priority 2022, published 2026)
Where no end group is shown, it is not given here. [ ]: non-standard residue; d: D form. Dopa = N[C@@H](Cc1ccc(O)c(O)c1)C(=O)O

What was measured:
CD8+ T-cells (PBMCs) = assay: In vitro peptide stimulation and T-cell proliferation assay, CD8+; type: cell-based, human
Excerpt: (§1) In vitro peptide stimulation and T-cell proliferation assay. Peripheral blood mononuclear cells (PBMCs) were freshly isolated from type 1 diabetes and healthy individuals using Ficoll-Hypaque density gradient centrifugation. PBMCs were labelled with the fluorescent dye CellTrace Violet (Invitrogen, Thermo Fisher Scientific) and cultured (2×10^5 cells/well) in round-bottom 96-well plates (Falcon, Becton Dickinson) with RPMI-1640 medium (Gibco, Thermo Fisher Scientific) supplemented with 5% autologous plasma in the presence or not of insulin peptides (20 μg/ml); PPD (10 μg/ml) and anti-CD3 (0.1 μg/ml; clone OKT3) were used as positive control. Two scrambled peptides: […] (SEQ ID NO: 17), […] (SEQ ID NO: 18), and the Exendin 9-39 fragment were used as negative controls. After 7 days, PBMCs were stained with PE-Cy7 anti-CD8 (clone RPA-T8, BD Pharmingen) and FITC anti-CD3 (clone UCHT1, BD Pharmingen). Samples were analysed by using a FACSCanto II (BD Bioscience) to evaluate T-cell proliferation measured as CellTrace Violet dilution. Cytofluorimetric analyses were performed using FlowJo Software (FlowJo, LLC). The results were given as stimulation index (SI), calculated as percentage of stimulated T-cell subset proliferation/percentage of unstimulated T-cell subset proliferation. Assay for detection of peptide specific T cells subsets was done as previously described (detailed in ESM methods, Assay for detection of peptide specific T cells)
(§2) T-cell stimulation with oxPTM-INSPs. To evaluate the immune cell response against the oxPTM-INSPs, we performed CD4+ and CD8+ T cells proliferation experiments using freshly isolated PBMCs (Study cohort 2, Table 1). Response was calculated as stimulatory index (SI) over unstimulated T-cells.

CD4+ T-cells (PBMCs) = assay: In vitro peptide stimulation and T-cell proliferation assay, CD4+; type: cell-based, human
Excerpt: as §1, §2

serum IgG autoantibodies = assay: ELISA for autoantibody detection: serum antibody binding to native and oxPTM insulin peptides; design: species or system human; settings: for % binders, Healthy controls / Mean ± SEM (absorbance, OD), Healthy controls / % binders, Type 1 diabetes: Study cohort 1; for % binders, Type 1 diabetes: cut-off = mean of healthy controls to Nt-INSP plus 3 SEM; for Mean ± SEM (absorbance, OD), Type 1 diabetes: Study cohort 1 sera
Method: ELISA for autoantibody detection. The ELISA analysis of Nt-INS and oxPTM-INS autoantibodies was performed as previously described [18](detailed in ESM methods, ELISA assay for antibody detection).
Statistical analyses. Statistical analyses were performed using Prism Software 9.0 (GraphPad, San Diego, CA, USA). Cut-off points of positivity (binders) in the antibody ELISA for each peptide were defined by the mean of optical absorbance (O.D) of healthy controls to the corresponding Nt-INSP plus three times the standard error of the mean (SEM). Specificity and sensitivity were evaluated by receiver operating characteristic (ROC) curve analysis. Area under the curve (AUC) is reported as absolute value and was tested for equality according to DeLong et al. Differences in antibody levels and T-cell stimulation indices (SI) between groups were tested by the One way ANOVA or Student's t-tests as appropriate. Correlation analyses were tested by Pearson or Spearman's test, as appropriate. Categorical analyses were performed by Chi-square or McNemar's tests, as appropriate. For each set of experiments, p values were adjusted for multiple comparison using the Holm-Sidak's test. Hierarchical cluster and Principal Component Analysis (PCA) was done using Clustvis software (https://biit.cs.ut.ee/clustvis/) and Prism Software 9.0, respectively.
Antibody reactivity of type 1 diabetes serum against the candidate oxPTM-INSP. Identified peptide candidates were synthesised and exposed to either HOCl or ^●OH to generate oxPTM-INSPs that were first assessed by TOF-MS/ES+TIC to confirm modification (FIG. 17). Antibody response against native INSPs (Nt-INSPs) and oxPTM-INSPs was evaluated by ELISA using sera from Study cohort 1.
ESM Methods ELISA assay for antibody detection. The ELISA analysis of native (Nt-INS) and modified insulin (oxPTM-INS) was performed as previously described. Briefly, the ELISA plate was coated overnight at 4° C. with 100 μl per well of modified or native insulin in 0.05 M carbonate/bicarbonate buffer pH 9.6 at 10 μg/ml. The next day, the plates were washed 3 times with 0.1% Tween PBS, followed by blocking for 2 hours at room temperature with 200 μl per well of 5% BSA in 0.1% Tween PBS. After washing, 100 μl of 1:200-diluted serum samples in 5% BSA-0.1% Tween PBS were added for additional 2 hours incubation. ELISA plates were then washed 3 times with 0.1% Tween PBS followed by probing with anti-human IgG horse radish peroxidase conjugated (HRP, Sigma) at 1:1,000 dilution in 5% BSA-0.1% Tween PBS for another 1.5 hours incubation. The ELISA plates were washed, and 100 μg/ml TMB substrate in 0.1M sodium acetate pH 6.0 plus 2 μl/10 ml of H2O2, were added. Subsequently, the reaction was stopped with 20% v/v sulphuric acid. The optical density (O.D.) was measured at 450 nm using a GENios plate reader and Magellan software (TECAN, Dorset, UK).

Substance | CD8+ T-cell response, subjects with SI > 1 (%) (CD8+ T-cells (PBMCs); Controls (N = 11)) | CD8+ T-cell response, subjects with SI > 3 (%) (CD8+ T-cells (PBMCs); Controls (N = 11)) | CD8+ T-cell response, subjects with SI > 5 (%) (CD8+ T-cells (PBMCs); Controls (N = 11)) | CD8+ T-cell response, subjects with SI > 10 (%) (CD8+ T-cells (PBMCs); Controls (N = 11)) | CD8+ T-cell response, subjects with SI > 1 (%) (CD8+ T-cells (PBMCs); Type 1 diabetes (N = 18)) | CD8+ T-cell response, subjects with SI > 3 (%) (CD8+ T-cells (PBMCs); Type 1 diabetes (N = 18)) | CD8+ T-cell response, subjects with SI > 5 (%) (CD8+ T-cells (PBMCs); Type 1 diabetes (N = 18)) | CD8+ T-cell response, subjects with SI > 10 (%) (CD8+ T-cells (PBMCs); Type 1 diabetes (N = 18)) | CD4+ T-cell response, subjects with SI > 1 (%) (CD4+ T-cells (PBMCs); Controls (N = 11)) | CD4+ T-cell response, subjects with SI > 3 (%) (CD4+ T-cells (PBMCs); Controls (N = 11)) | CD4+ T-cell response, subjects with SI > 5 (%) (CD4+ T-cells (PBMCs); Controls (N = 11)) | CD4+ T-cell response, subjects with SI > 10 (%) (CD4+ T-cells (PBMCs); Controls (N = 11)) | CD4+ T-cell response, subjects with SI > 1 (%) (CD4+ T-cells (PBMCs); Type 1 diabetes (N = 18)) | CD4+ T-cell response, subjects with SI > 3 (%) (CD4+ T-cells (PBMCs); Type 1 diabetes (N = 18)) | CD4+ T-cell response, subjects with SI > 5 (%) (CD4+ T-cells (PBMCs); Type 1 diabetes (N = 18)) | CD4+ T-cell response, subjects with SI > 10 (%) (CD4+ T-cells (PBMCs); Type 1 diabetes (N = 18)) | % binders, Healthy controls (serum IgG autoantibodies; in house modifications) [%] | Mean ± SEM (absorbance, OD), Healthy controls (serum IgG autoantibodies; in house modifications) | % binders, Type 1 diabetes (serum IgG autoantibodies; in house modifications) [%] | Mean ± SEM (absorbance, OD), Type 1 diabetes (serum IgG autoantibodies; in house modifications) | further results
ERGFFYTPKTR (Ac-ERGFFYTPKTR) [INSP-6 with C-terminal arginine] | (27.3%) | (0.0%) | (0.0%) | (0.0%) | (44.4%) | (16.7%) | (16.7%) | (16.7%) | (36.4%) | (0.0%) | (0.0%) | (0.0%) | (55.6%) | (27.8%) | (21.1%) | (11.1%) |  |  |  |  | 
ERGYY-DOPA-TPKT (ERGYY[Dopa]TPKT) [in silico designed oxPTM-INSP-6 derivative] | (18.2%) | (9.10%) | (0.0%) | (0.0%) | (27.8%) | (0.0%) | (0.0%) | (0.0%) | (27.3%) | (0.0%) | (0.0%) | (0.0%) | (50.0%) | (5.6%) | (5.2%) | (5.6%) |  |  |  |  | % binders, Healthy controls (serum IgG autoantibodies; in silico modifications): 30%; Mean ± SEM (absorbance, OD), Healthy controls (serum IgG autoantibodies; in silico modifications): 0.357 ± 0.030; % binders, Type 1 diabetes (serum IgG autoantibodies; in silico modifications): 100%; Mean ± SEM (absorbance, OD), Type 1 diabetes (serum IgG autoantibodies; in silico modifications): 0.536 ± 0.021; type 1 diabetes binders (IgG autoantibody reactivity) (serum IgG autoantibodies; Study cohort 2, N = 18): 55.5%
ERGYYYTPKT (Ac-ERGYYYTPKT) [in silico designed oxPTM-INSP-6 derivative] | (27.3%) | (18.2%) | (18.2%) | (9.1%) | (22.2%) | (11.1%) | (11.1%) | (5.6%) | (36.4%) | (18.2%) | (9.1%) | (0.0%) | (50.0%) | (22.2%) | (0.0%) | (0.0%) |  |  |  |  | % binders, Healthy controls (serum IgG autoantibodies; in silico modifications): 25%; Mean ± SEM (absorbance, OD), Healthy controls (serum IgG autoantibodies; in silico modifications): 0.351 ± 0.044; % binders, Type 1 diabetes (serum IgG autoantibodies; in silico modifications): 100%; Mean ± SEM (absorbance, OD), Type 1 diabetes (serum IgG autoantibodies; in silico modifications): 0.556 ± 0.031
FVNQHLC [INSP-5, insulin B:1-7 peptide] |  |  |  |  |  |  |  |  |  |  |  |  |  |  |  |  |  |  |  |  | Antibody reactivity of serum samples (in words) (serum IgG autoantibodies; ELISA): No significant reactivity
INSP-3 oxPTM-HOCI: INSP-3 peptide oxidised in house by HOCl (SLYQLENYCN; not fully specified (N-terminus); also: oxidised by HOCl, modified residues not defined) |  |  |  |  |  |  |  |  |  |  |  |  |  |  |  |  | 40 | 0.452 ± 0.048 | 53 | 0.473 ± 0.037 | 
INSP-3 oxPTM-•OH: INSP-3 peptide oxidised in house by hydroxyl radical (SLYQLENYCN; not fully specified (N-terminus); also: oxidised by hydroxyl radical, modified residues not defined) |  |  |  |  |  |  |  |  |  |  |  |  |  |  |  |  | 86 | 0.617 ± 0.042 | 86 | 0.667 ± 0.044 | Mean ± SEM (absorbance, OD), Type 1 diabetes (serum IgG autoantibodies; in house modifications, listed as ●OH-modified oxPTM-INSP-3): 0.667±0.044
INSP-4 oxPTM-HOCI: INSP-4 peptide oxidised in house by HOCl (LVEALYLVCGERGFFYTPKT; also: oxidised by HOCl, modified residues not defined) |  |  |  |  |  |  |  |  |  |  |  |  |  |  |  |  | 27 | 0.296 ± 0.022 | 66 | 0.563 ± 0.053 | Mean ± SEM (absorbance, OD), Type 1 diabetes (serum IgG autoantibodies; in house modifications, listed as HOCl-modified oxPTM-INSP-4): 0.563±0.053
